The DC50 is the concentration giving 50% degradation. A high value points to a less potent degrader. One may read the IC50 as the concentration at which inhibition is half-maximal.

A value given as a limit tells only on which side of the number the result lay.

Our source for the DC50 and IC50 values is patent publication US20240360146A1, “BRUTON'S TYROSINE KINASE AND MUTANT DEGRADER, COMPOSITION AND APPLICATION THEREOF” (HANGZHOU HEALZEN THERAPEUTICS CO., LTD., priority 2021, published 2024).

Assay type in all cases: cell-based
The target of one assay is T1, BTK (Homo sapiens, UniProt Q06187).
T1 construct: endogenous in cells; host or cells: Mino cells
T1 sequence (Q06187 whole entry): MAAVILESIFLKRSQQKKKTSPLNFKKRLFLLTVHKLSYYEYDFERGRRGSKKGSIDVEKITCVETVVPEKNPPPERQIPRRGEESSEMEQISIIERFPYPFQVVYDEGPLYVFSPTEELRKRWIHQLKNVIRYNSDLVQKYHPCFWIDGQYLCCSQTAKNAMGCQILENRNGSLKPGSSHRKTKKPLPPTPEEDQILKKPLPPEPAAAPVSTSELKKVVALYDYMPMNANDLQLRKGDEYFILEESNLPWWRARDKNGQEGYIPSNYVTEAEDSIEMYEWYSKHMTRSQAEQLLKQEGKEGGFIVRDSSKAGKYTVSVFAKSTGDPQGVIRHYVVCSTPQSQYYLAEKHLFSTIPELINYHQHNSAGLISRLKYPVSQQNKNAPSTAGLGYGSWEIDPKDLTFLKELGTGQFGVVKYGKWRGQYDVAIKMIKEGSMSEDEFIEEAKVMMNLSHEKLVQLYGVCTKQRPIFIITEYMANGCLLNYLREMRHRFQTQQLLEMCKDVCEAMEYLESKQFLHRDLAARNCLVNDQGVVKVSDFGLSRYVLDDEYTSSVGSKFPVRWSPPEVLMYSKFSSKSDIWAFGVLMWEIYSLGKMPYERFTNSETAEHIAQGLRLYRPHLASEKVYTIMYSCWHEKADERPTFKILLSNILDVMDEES
Put plainly: BTK degradation activity test in Mino cells. The settings on record: 16 h incubation, Western blot or Elisa. An outline of the steps: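 Mino cells treated with a concentration series of compound for 16 h, then lysed; total protein by BCA. BTK quantified by Western blot or ELISA, degradation rate calculated against blank control, and DC50 fitted from the degradation curve.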
A general note: In western blotting, separated proteins are transferred to a membrane and probed.

The subject of the next assay is OCI-LY10 cells. Put plainly: Inhibitory activity on OCI-LY10 cell proliferation (MTS). The settings on record: Homo sapiens, 72 h. The procedure:
(§1) The anti-tumor efficacy of the compounds was tested by measuring their inhibitory effects on OCI-LY10 and Mino cell proliferation. OCI-LY10 and Mino cells were cultured in RPMI-1640 medium containing 10% fetal calf serum. OCI-LY10 and Mino cells were digested, inoculated in a 96-well plate at a cell concentration of 10000 cells/well, and incubated overnight at 37° C., 5% CO2. Compounds of different concentrations (1000 nM, 4-fold dilution, 8 points) were added to the 96-well plate and incubated for 72 h (LY10) or 168 h (Mino) at 37° C. and 5% CO2, and then 20 uL of MTS was added to each well. After incubation for 2 h, 25 μl of 10% SDS was added to each well to terminate the reaction. The absorbance at 490 nm and 650 nm were measured with a microplate reader. IC50 was calculated using GraphPad Prism 5.0.

The next assay concerns Mino cells. Kind of assay: Inhibitory activity on Mino cell proliferation (MTS). The settings on record: Homo sapiens, 168 h incubation. The procedure:
as §1

For `CN1CCN([C@@H]2CCCN(c3nnc(C(N)=O)c(Nc4ccc(N5CCC(CN6CCN(c7cc8c(cc7F)C(=O)N(C7CCC(=O)NC7=O)C8=O)CC6)CC5)cc4)n3)C2)C1=O` (stereo partly drawn) [Compound 125, 5-((4-(4-((4-(2-(2,6-dioxopiperidin-3-yl)-6-fluoro-1,3-dioxoisoindolin-5-yl)piperazin-1-yl)methyl)piperidin-1-yl)phenyl)amino)-3-((R)-3-(3-methyl-2-oxoimidazolin-1-yl)piperidin-1-yl)-1,2,4-triazin-6-carboxamide], on BTK, the DC50 is < 1 nM. This compound also came in with a half-maximal inhibitory concentration (IC50) in the assay with OCI-LY10 cells of 1.83 nM.

In the case of `CN1CCN([C@@H]2CCCN(c3nnc(C(N)=O)c(Nc4ccc(N5CCN(CC6CCN(c7ccc(N8CCC(=O)NC8=O)c(F)c7F)CC6)CC5)c(F)c4)n3)C2)C1=O` [Compound 185, (R)-5-((4-(4-((1-(4-(2,4-dioxotetrahydropyrimidin-1(2H)-yl)-2,3-difluorophenyl)piperidin-4-yl)methyl)piperazin-1-yl)-3-fluorophenyl)amino)-3-(3-(3-methyl-2-oxoimidazolidin-1-yl)piperidin-1-yl)-1,2,4-triazin-6-carboxamide], on BTK, the 50% degradation concentration (DC50) is < 1 nM. In the assay with OCI-LY10 cells, this compound gave an IC50 of 1.36 nM.

`CN1CCN([C@@H]2CCCN(c3nnc(C(N)=O)c(Nc4ccc(N5CCN(CC6CCN(c7ccc(N8CCC(=O)NC8=O)cc7F)CC6)CC5)c(F)c4)n3)C2)C1=O` [Compound 186, (R)-5-((4-(4-((1-(4-(2,4-dioxotetrahydropyrimidin-1(2H)-yl)-2-fluorophenyl)piperidin-4-yl)methyl)piperazin-1-yl)-3-fluorophenyl)amino)-3-(3-(3-methyl-2-oxoimidazolidin-1-yl)piperidin-1-yl)-1,2,4-triazin-6-carboxamide]: the 50% degradation concentration (DC50) at BTK is < 1 nM. In the assay on Mino cells, half-maximal inhibition (IC50) was put at 2.26 nM.

For `CN1CCN([C@@H]2CCCN(c3nnc(C(N)=O)c(Nc4ccc(N5CCN(CC6CCN(c7ccc(N8CCC(=O)NC8=O)c(C(F)(F)F)c7)CC6)CC5)c(F)c4)n3)C2)C1=O` [Compound 187, (R)-5-((4-(4-((1-(4-(2,4-dioxotetrahydropyrimidin-1(2H)-yl)-3-(trifluoromethyl)phenyl)piperidin-4-yl)methyl)piperazin-1-yl)-3-fluorophenyl)amino)-3-(3-(3-methyl-2-oxoimidazolidin-1-yl)piperidin-1-yl)-1,2,4-triazin-6-carboxamide], on BTK, the DC50 was < 1 nM. In addition, the IC50 in the assay on Mino cells was 2.07 nM.

In the case of `CN1CCN([C@@H]2CCCN(c3nnc(C(N)=O)c(Nc4ccc(N5CCN(CC6CCN(c7ccc(N8CCC(=O)NC8=O)c(C(F)F)c7)CC6)CC5)c(F)c4)n3)C2)C1=O` [Compound 188, (R)-5-((4-(4-((1-(3-(difluoromethyl)-4-(2,4-dioxotetrahydropyrimidin-1(2H)-yl)phenyl)piperidin-4-yl)methyl)piperazin-1-yl)-3-fluorophenyl)amino)-3-(3-(3-methyl-2-oxoimidazolidin-1-yl)piperidin-1-yl)-1,2,4-triazin-6-carboxamide], the DC50 at BTK is < 1 nM. Further, the IC50 in the assay on Mino cells came to 5.55 nM.

Turning to `CC(C)c1cc(N2CCC(CN3CCN(c4ccc(Nc5nc(N6CCC[C@@H](N7CCN(C)C7=O)C6)nnc5C(N)=O)cc4F)CC3)CC2)ccc1N1CCC(=O)NC1=O` [Compound 189, (R)-5-((4-(4-((1-(4-(2,4-dioxotetrahydropyrimidin-1(2H)-yl)-3-isopropylphenyl)piperidin-4-yl)methyl)piperazin-1-yl)-3-fluorophenyl)amino)-3-(3-(3-methyl-2-oxoimidazolidin-1-yl)piperidin-1-yl)-1,2,4-triazin-6-carboxamide], the DC50 at BTK is < 1 nM. In the assay with Mino cells, this compound registered an IC50 of 5.45 nM.

On to `CN1CCN([C@@H]2CCCN(c3nnc(C(N)=O)c(Nc4ccc(N5CCN(CC6CCN(c7ccc(N8CCC(=O)NC8=O)c8ocnc78)CC6)CC5)c(F)c4)n3)C2)C1=O` [Compound 191, (R)-5-((4-(4-((1-(7-(2,4-dioxotetrahydropyrimidin-1(2H)-yl)benzo[d]oxazol-4-yl)piperidin-4-yl)methyl)piperazin-1-yl)-3-fluorophenyl)amino)-3-(3-(3-methyl-2-oxoimidazolidin-1-yl)piperidin-1-yl)-1,2,4-triazin-6-carboxamide], for which the DC50 on BTK was < 1 nM. Further, in the assay on Mino cells, 8.47 nM corresponded to half-maximal inhibition (IC50).

Consider `CN1CCN([C@@H]2CCCN(c3nnc(C(N)=O)c(Nc4ccc(N5CCN(CC6CCN(c7ccc(N8CCC(=O)NC8=O)c8[nH]cnc78)CC6)CC5)c(F)c4)n3)C2)C1=O` [Compound 192, (R)-5-((4-(4-((1-(7-(2,4-dioxotetrahydropyrimidin-1(2H)-yl)-1H-benzo[d]imidazol-4-yl)piperidin-4-yl)methyl)piperazin-1-yl)-3-fluorophenyl)amino)-3-(3-(3-methyl-2-oxoimidazolidin-1-yl)piperidin-1-yl)-1,2,4-triazin-6-carboxamide], for which the DC50 on BTK is < 1 nM. In the assay on Mino cells, it took 2.41 nM to reach half-maximal inhibition (IC50).

Turning to `Cc1cc(N2CCC(CN3CCN(c4ccc(Nc5nc(N6CCC[C@@H](N7CCN(C)C7=O)C6)nnc5C(N)=O)cc4F)CC3)CC2)ccc1NC1CCC(=O)NC1=O` (stereo partly drawn) [Compound 207, 5-((4-(4-((1-(4-((2,6-dioxopiperidin-3-yl)amino)-3-methylphenyl)piperidin-4-yl)methyl)piperazin-1-yl)-3-fluorophenyl)amino)-3-((R)-3-(3-methyl-2-oxoimidazolidin-1-yl)piperidin-1-yl)-1,2,4-triazin-6-carboxamide], the DC50 at BTK was < 1 nM. This compound registered an IC50 in the assay with OCI-LY10 cells of 0.23 nM.

For `CN1CCN([C@@H]2CCCN(c3nnc(C(N)=O)c(Nc4ccc(N5CCN(CC6CCN(c7ccc(NC8CCC(=O)NC8=O)c8c7OCO8)CC6)CC5)c(F)c4)n3)C2)C1=O` (stereo partly drawn) [Compound 209, 5-((4-(4-((1-(7-((2,6-dioxopiperidin-3-yl)amino)benzo[d][1,3]dioxacyclopent-4-yl)piperidin-4-yl)methyl)piperazin-1-yl)-3-fluorophenyl)amino)-3-((R)-3-(3-methyl-2-oxoimidazolidin-1-yl)piperidin-1-yl)-1,2,4-triazin-6-carboxamide], on BTK, the DC50 was < 1 nM. This compound also yielded an IC50 in the assay with Mino cells of 3.42 nM.

For the compound `CN1CCN([C@@H]2CCCN(c3nnc(C(N)=O)c(Nc4ccc(N5CCN(CC6CCN(c7ccc(NC8CCC(=O)NC8=O)c8ocnc78)CC6)CC5)c(F)c4)n3)C2)C1=O` (stereo partly drawn) [Compound 210, 5-((4-(4-((1-(7-((2,6-dioxopiperidin-3-yl)amino)benzo[d]oxazol-4-yl)piperidin-4-yl)methyl)piperazin-1-yl)-3-fluorophenyl)amino)-3-((R)3-(3-methyl-2-oxoimidazolidin-1-yl)piperidin-1-yl)-1,2,4-triazin-6-carboxamide], on BTK, the DC50 was < 1 nM. This compound showed a 50% inhibitory concentration (IC50) in the assay with Mino cells of 2.33 nM.

For the compound `CN1CCN([C@@H]2CCCN(c3nnc(C(N)=O)c(Nc4ccc(N5CCN(CC6CCN(c7ccc8c(C9CCC(=O)NC9=O)nn(C)c8c7)CC6)CC5)c(F)c4)n3)C2)C1=O` (stereo partly drawn) [Compound 213, 5-((4-(4-((1-(3-(2,6-dioxopiperidin-3-yl)-1-methyl-1H-indazol-6-yl)piperidin-4-yl)methyl)piperazin-1-yl)-3-fluorophenyl)amino)-3-((R)-3-(3-methyl-2-oxoimidazolidin-1-yl)piperidin-1-yl)-1,2,4-triazin-6-carboxamide], the DC50 on BTK was < 1 nM. In the assay on Mino cells, this compound showed an IC50 of 7.64 nM.

On to `CN1CCN([C@@H]2CCCN(c3nnc(C(N)=O)c(Nc4ccc(N5CCN(CC6CCN(c7ccc8c(c7)n(C)c(=O)n8C7CCC(=O)NC7=O)CC6)CC5)c(F)c4)n3)C2)C1=O` (stereo partly drawn) [Compound 219, 5-((4-(4-((1-(1-(2,6-dioxopiperidin-3-yl)-3-methyl-2-oxo-2,3-dihydro-H-benzo[d]imidazol-5-yl)piperidin-4-yl)methyl)piperazin-1-yl)-3-fluorophenyl)amino)-3-((R)-3-(3-methyl-2-oxoimidazolidin-1-yl)piperidin-1-yl)-1,2,4-triazin-6-carboxamide], for which the DC50 on BTK was < 1 nM. Further, the IC50 in the assay on Mino cells stood at 2.74 nM.

As to `CN1CCN([C@@H]2CCCN(c3nnc(C(N)=O)c(Nc4ccc(N5CCN(CC6CCN(c7ccc8c9c(oc8c7)C(=O)N(C7CCC(=O)NC7=O)C9)CC6)CC5)c(F)c4)n3)C2)C1=O` (stereo partly drawn) [Compound 223, 5-((4-(4-((1-(2-(2,6-dioxopiperidin-3-yl)-3-oxo-2,3-dihydro-H-benzofuro[2,3-c]pyrrol-6-yl)piperidin-4-yl)methyl)piperazin-1-yl)-3-fluorophenyl)amino)-3-((R)-3-(3-methyl-2-oxoimidazolidin-1-yl)piperidin-1-yl)-1,2,4-triazin-6-carboxamide], on BTK, the DC50 was < 1 nM. This compound returned an IC50 in the assay on OCI-LY10 cells of 2.55 nM.

For `CN1CCN([C@@H]2CCCN(c3nnc(C(N)=O)c(Nc4ccc(N5CCN(CC#Cc6ccc(C(=O)NC7CCC(=O)NC7=O)nc6)CC5)c(F)c4)n3)C2)C1=O` (stereo partly drawn) [Compound 224, 5-((4-(4-(3-(6-((2,6-dioxopiperidin-3-yl)carbamoyl)pyridin-3-yl)propan-2-yn-1-yl)piperazin-1-yl)-3-fluorophenyl)amino)-3-((R)-3-(3-methyl-2-oxoimidazolidin-1-yl)piperidin-1-yl)-1,2,4-triazin-6-carboxamide], the DC50 at BTK is < 1 nM. For the same compound, half-maximal inhibition in the assay with OCI-LY10 cells (IC50) required 2.25 nM.
